Results taken from PubChem BioAssay (NCI).
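Step 1: Grow cells in 96-well plates. Step 2: Expose to compound for 48 hours at 5 concentrations. Step 3: Interpolate endpoints linearly; if unreached, use highest concentration. Definition used: TGI = concentration required for complete inhibition of growth.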

What was measured:
Test in all cases: growth of human tumour cells (NCI), 48 h
A549 NSCLC = tested on: A549 NSCLC
CCRF-CEM leukemia = tested on: CCRF-CEM leukemia
HCT-116 colon = tested on: HCT-116 colon
HS 578T breast = tested on: HS 578T breast
HT29 colon = tested on: HT29 colon
NCI-H522 lung = tested on: NCI-H522 lung
OVCAR-8 ovarian = tested on: OVCAR-8 ovarian
RXF 393 renal = tested on: RXF 393 renal
SF-295 CNS = tested on: SF-295 CNS
SN12C renal = tested on: SN12C renal
SNB-19 CNS = tested on: SNB-19 CNS
SW-620 colon = tested on: SW-620 colon
UACC-257 melanoma = tested on: UACC-257 melanoma
UACC-62 melanoma = tested on: UACC-62 melanoma
UO-31 renal = tested on: UO-31 renal
HOP-92 NSCLC = tested on: HOP-92 NSCLC

Row | SMILES | TGI (A549 NSCLC) | TGI (CCRF-CEM leukemia) | TGI (HCT-116 colon) | TGI (HS 578T breast) | TGI (HT29 colon) | TGI (NCI-H522 lung) | TGI (OVCAR-8 ovarian) | TGI (RXF 393 renal) | TGI (SF-295 CNS) | TGI (SN12C renal) | TGI (SNB-19 CNS) | TGI (SW-620 colon) | TGI (UACC-257 melanoma) | TGI (UACC-62 melanoma) | TGI (UO-31 renal) | TGI (HOP-92 NSCLC)
1 | Cc1ccc(C)n1-n1c(Cc2ccc(Cl)cc2)n[nH]c1=O | > 100 µM | > 100 µM | > 100 µM | > 100 µM | > 100 µM | > 100 µM | > 100 µM | > 100 µM | > 100 µM | > 100 µM | > 100 µM | > 100 µM | > 100 µM | > 100 µM | > 100 µM | –
2 | CC(=O)OC12c3ccccc3C(c3ccccc31)C1C(=O)N(Nc3ccccc3)C(=O)C12 (stereo not drawn) | > 100 µM | > 100 µM | > 100 µM | > 100 µM | > 100 µM | – | > 100 µM | > 100 µM | > 100 µM | > 100 µM | > 100 µM | > 100 µM | > 100 µM | – | > 100 µM | –
3 | c1ccc(C2C3=C(c4ccccc4CC3)N3c4cc5nc6ccccc6nc5cc4NC34CCCCC24)cc1 (stereo not drawn) | > 10 µM | 5.9 µM | > 10 µM | > 10 µM | > 10 µM | – | > 10 µM | > 10 µM | > 10 µM | > 10 µM | > 10 µM | > 10 µM | > 10 µM | > 10 µM | > 10 µM | > 10 µM
4 | CCOC(=O)C1C(c2ccccc2)C2(C#N)C(=N)OC1(C)C2(C#N)C#N (stereo not drawn) | > 100 µM | 99.7 µM | 35.7 µM | > 100 µM | 29.4 µM | – | 80.4 µM | 35.5 µM | > 100 µM | – | > 100 µM | > 100 µM | 54.2 µM | 82.6 µM | 31.4 µM | 48.6 µM
5 | CCN(CC)CCOc1ccc(N2Cc3cc(OC)c(OC)cc3C2=O)cc1 | > 100 µM | > 100 µM | > 100 µM | > 100 µM | > 100 µM | > 100 µM | > 100 µM | > 100 µM | > 100 µM | > 100 µM | > 100 µM | > 100 µM | > 100 µM | > 100 µM | – | > 100 µM
6 | C=CC[C@H](O)[C@@](NC(=O)OCc1ccccc1)(Sc1ccc(C)cc1)C(F)(F)F | > 100 µM | – | 60.5 µM | 82.8 µM | > 100 µM | 32.4 µM | 35.3 µM | 53 µM | 66.7 µM | 45.8 µM | > 100 µM | > 100 µM | 74.1 µM | > 100 µM | 55.4 µM | > 100 µM
7 | CCCc1c(O)c2ccccc2[nH]c1=O | > 100 µM | > 100 µM | > 100 µM | > 100 µM | > 100 µM | > 100 µM | > 100 µM | – | > 100 µM | > 100 µM | > 100 µM | > 100 µM | > 100 µM | – | > 100 µM | > 100 µM
8 | N#Cc1nc(/C=C/c2cccs2)oc1N | > 100 µM | > 100 µM | > 100 µM | > 100 µM | > 100 µM | – | > 100 µM | > 100 µM | – | > 100 µM | > 100 µM | > 100 µM | > 100 µM | > 100 µM | 63.6 µM | > 100 µM
9 | Cc1ccc(S(=O)(=O)NN=C2C(C)CC(C(C)(C)C)CC2C)cc1 (stereo not drawn) | 32.7 µM | 41.8 µM | 34.1 µM | > 100 µM | 32.8 µM | 50.2 µM | 59.8 µM | – | 33.1 µM | 32.7 µM | 66 µM | 40.6 µM | 36.6 µM | 93.2 µM | 40.8 µM | 30.1 µM
10 | Oc1c(Nc2ccccc2)cc2c3c1N=NC=3CCN=2 | > 100 µM | 93.9 µM | 44.4 µM | > 100 µM | > 100 µM | > 100 µM | 59.8 µM | > 100 µM | > 100 µM | > 100 µM | > 100 µM | > 100 µM | – | 49.2 µM | > 100 µM | > 100 µM
11 | O=c1cc(CN2CCCCC2)[nH]c2c1ccc1nc(CN3CCCCC3)cc(=O)n12 | > 100 µM | > 100 µM | > 100 µM | > 100 µM | > 100 µM | – | > 100 µM | > 100 µM | > 100 µM | > 100 µM | > 100 µM | > 100 µM | > 100 µM | > 100 µM | > 100 µM | > 100 µM
12 | CCCCCCCCOP(=O)(O)OP(=O)(O)OCC1OC(n2ccc(N)nc2=O)C(O)C1O (stereo not drawn) | > 100 µM | > 100 µM | > 100 µM | > 100 µM | > 100 µM | – | > 100 µM | > 100 µM | > 100 µM | > 100 µM | > 100 µM | > 100 µM | > 100 µM | > 100 µM | > 100 µM | > 100 µM
13 | O=C1NC(=S)NC1C(Cc1ccccc1)c1ccco1 (stereo not drawn) | > 100 µM | > 100 µM | > 100 µM | > 100 µM | > 100 µM | > 100 µM | > 100 µM | > 100 µM | > 100 µM | > 100 µM | > 100 µM | > 100 µM | > 100 µM | – | > 100 µM | > 100 µM
14 | CCOC(=O)C(=NN(C)c1ncccc1N)C(=O)OCC | > 100 µM | > 100 µM | 65.4 µM | > 100 µM | > 100 µM | – | > 100 µM | > 100 µM | > 100 µM | 64.5 µM | > 100 µM | 70.3 µM | 58.7 µM | > 100 µM | > 100 µM | 46.2 µM
15 | CC(C)C1=CC23CCC4C(C)(C(=O)O)CCCC4(C)C2CC1C1C(=O)N(c2ccc(N4C(=O)C5C6CC7C8(C)CCCC(C)(C(=O)O)C8CCC7(C=C6C(C)C)C5C4=O)cc2)C(=O)C13 (stereo not drawn) | 43.3 µM | 19.4 µM | 11.8 µM | 30.2 µM | 5.22 µM | 17 µM | 16.5 µM | 24.7 µM | – | 17.5 µM | 18.8 µM | 21.6 µM | – | – | 34 µM | 28.5 µM
